Laboratory results from ChEMBL document CHEMBL2029257, “Copper-Free Click for PET: Rapid 1,3-Dipolar Cycloadditions with a Fluorine-18 Cyclooctyne” (ACS Med Chem Lett, 2011).

Columns and labels:
Type in all cases: ADME, cell-free
[1] = Metabolic stability in Sprague-Dawley rat serum assessed as compound remaining at 2 MBq at 1 hr by RP-HPLC analysis; conditions: read-out: Stability
[2] = (§1) Metabolic stability in Sprague-Dawley rat serum assessed as compound remaining at 2 MBq at 2 hrs by RP-HPLC analysis; conditions: Sprague-Dawley, read-out: Stability
Serum = experiment: as §1; conditions: 2 h

O=C(O)COCC(=O)NCCOCCOCCOCCOCCOCCOCCOCCOCCn1nnc2c1-c1ccccc1CN(C(=O)CCCCCNC(=O)c1ccc([18F])cc1)c1ccccc1-2
remaining at 1 h, 2 MBq [1]: > 98% | remaining at 2 h, 2 MBq [2]: 96.8%

O=C(NCCCCCC(=O)N1Cc2ccccc2C#Cc2ccccc21)c1ccc([18F])cc1
remaining at 1 h, 2 MBq [1]: > 98% | Stability (Serum): Stable
